Test results from patent US11878023B2, “Compositions and methods for delivering pharmaceutical agents” (Arizona Board of Regents on Behalf of the University of …, priority 2017, dated 2024).
Structures can show the parent of a compound that is named as a salt.

Experiments:
[1] = Residual water content by Karl Fischer titration (KFT); format: physicochemical
From the text: Using conditions similar to those previously reported (Li et al., 2014, supra; […], et al., European journal of pharmaceutical sciences: official journal of the European Federation for Pharmaceutical Sciences. Jul. 16, 2013; 49(4):699-711; […], et al., International journal of nanomedicine. 2013; 8:275-293), the residual water content of all SD powders were quantified analytically by Karl Fischer titration (KFT) coulometrically using a TitroLine 7500 trace titrator (SI Analytics, Germany). Approximately 2-10 mg of powder was added to the titration cell containing Hydranal® Coulomat AD reagent. The residual water content was measured at the end of titration.

[2] = Laser diffraction particle size analysis; format: physicochemical; conditions: laser sizing, n = 3
Method: The laser diffraction particle size analysis was performed on raw Fas and all co-SD samples.

- Residual Water content ([1]; n = 3): 2.97 ± 0.06 % w/w
- Residual Water content ([1]; n = 3, listed as raw Fas): 2.97 % w/w
- DV90 [2]: 7.42 ± 0.19 μm
- Dv10 [2]: 3.67 ± 0.32 μm
- Dv50 [2]: about 5 μm
- Span Value [2]: 0.765 ± 0.15
- Dv50 ([2]; listed as Raw FH): 4.96 ± 3.5 μm
Compound: O=S(=O)(c1cccc2cnccc12)N1CCCNCC1 [Raw Fas, Fasudil monohydrochloride hemihydrate salt]
